The text below walks through data of patent US20250214980A1, “MULTICYCLIC COMPOUNDS” (SLAP Pharmaceuticals LLC, priority 2022, published 2025).

The target of one assay is T1, PARP1 (Homo sapiens (Human), UniProt P09874). Nature of the assay: cell-based assay (Proliferation Assay (PARP Inhibitors) in DLD-1 wt and DLD-1 BRCA2), Table 1. On the procedure: Proliferation Assay (PARP Inhibitors) in DLD-1 wt and DLD-1 BRCA2
DLD-1-wt and DLD-1 mutant cells are cultured in RPMI 1640+10% FBS+1% PS. The cells are harvested into culture media for 2-3 days. The cells are diluted into culture media (density 2˜3×10^6) and 40 μL of cell suspension (50 cells/well for DLD-1 wt and 50 cells/well for DLD-1 BRCA (-/-). The plates are covered and spun at rt at 1000 rpm, for 1 minute and then transferred. The plates are placed into 37° C. 5% CO2 incubator overnight. Test compounds are dissolved at 10 mM DMSO stock solution and then 40 μL of stock solution is transferred to a 384 PP-plate. A 10-point dilution is carried out by transferring 10 uL compound into 30 μL DMSO by using TECAN (EVO200) liquid handler. The plates are spun at rt at 1000 rpm for 1 minute and then shaken on a plate shaker for 2 minutes. Forty nL of diluted compound is transferred into the cell plate by using a liquid handler. After 7 days of incubation, a CTG detection assay is performed. The CTG detection assay is carried out by removing the plates from the incubators and then equilibrated at rt for 15 minutes. The CellTiter Glo reagents are thawed and equilibrated at rt. CellTiter-Glo reagent ([…]) is added into each well, and the plates are placed at rt for 30 minutes followed by reading on EnVision. The inhibition activity is calculated using the formula: % Inhibition=100×(LumHC−LumSample)/(LumHC−LumLC).
In Table 1, ‘A’ indicates an IC50 of <0.1 μM, ‘B’ indicates an IC50 of ≥0.1 μM and <1.0 μM, and ‘C’ indicates an IC50 of ≥[…]. As shown by the results in Table 1, compounds of Formula (I), including pharmaceutically acceptable salts thereof, are effective PARP1 inhibitors.
Target sequence in this assay (P09874 whole entry): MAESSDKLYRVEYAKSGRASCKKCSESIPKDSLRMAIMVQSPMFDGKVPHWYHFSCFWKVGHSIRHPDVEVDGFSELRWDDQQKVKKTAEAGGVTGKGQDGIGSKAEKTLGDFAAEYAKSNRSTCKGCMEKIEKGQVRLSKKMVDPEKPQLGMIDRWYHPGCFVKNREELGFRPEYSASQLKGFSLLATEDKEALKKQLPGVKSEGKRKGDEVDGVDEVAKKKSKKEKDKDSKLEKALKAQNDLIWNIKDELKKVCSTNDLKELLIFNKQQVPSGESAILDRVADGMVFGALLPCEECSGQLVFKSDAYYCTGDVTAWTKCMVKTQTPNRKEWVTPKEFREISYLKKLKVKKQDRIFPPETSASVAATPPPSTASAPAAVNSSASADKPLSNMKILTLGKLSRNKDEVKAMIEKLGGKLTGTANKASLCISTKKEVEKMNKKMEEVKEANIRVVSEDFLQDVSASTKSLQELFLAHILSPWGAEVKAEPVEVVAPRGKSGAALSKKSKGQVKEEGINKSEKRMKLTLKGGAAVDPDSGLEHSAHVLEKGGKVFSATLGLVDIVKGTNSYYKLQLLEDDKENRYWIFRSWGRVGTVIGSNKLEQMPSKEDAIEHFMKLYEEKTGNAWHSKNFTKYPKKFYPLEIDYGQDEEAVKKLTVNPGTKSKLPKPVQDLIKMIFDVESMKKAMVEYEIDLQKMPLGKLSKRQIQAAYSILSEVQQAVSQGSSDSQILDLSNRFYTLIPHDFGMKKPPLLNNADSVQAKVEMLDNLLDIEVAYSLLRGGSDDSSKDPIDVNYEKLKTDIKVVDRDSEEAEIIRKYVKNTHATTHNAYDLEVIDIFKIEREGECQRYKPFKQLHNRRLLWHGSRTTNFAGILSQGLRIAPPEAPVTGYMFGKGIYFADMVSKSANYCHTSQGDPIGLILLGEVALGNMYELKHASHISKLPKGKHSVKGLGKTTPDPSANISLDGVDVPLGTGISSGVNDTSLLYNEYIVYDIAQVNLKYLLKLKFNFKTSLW
Usually IC50 stands for the point on the concentration scale where inhibition reaches its midpoint. A low value points to greater potency in that assay. `CC[C@@H]1Oc2ccc(CN3CCN(c4ccc(C(=O)NC)nc4)CC3)cc2NC1=O` (single isomer, unassigned) [Compound 1ab]: the half-inhibitory concentration (IC50) is < 100 nM.

Regarding `CC[C@@H]1Oc2ccc(CN3CCN(c4ccc(C(=O)NC)nc4C)CC3)cc2NC1=O` (single isomer, unassigned) [Compound 2ab], the IC50 was < 100 nM.

As to `CC[C@H]1Oc2ccc(CN3CCN(c4ccc(C(=O)NC)nc4)CC3)cc2NC1=O` [Compound 1aa], the IC50 is < 100 nM.

`CC[C@H]1Oc2ccc(CN3CCN(c4ccc(C(=O)NC)nc4C)CC3)cc2NC1=O` [Compound 2aa]: the 50% inhibitory concentration (IC50) is < 100 nM.

As to `CCC1Oc2ccc(CN3CCN(c4ccc(C(=O)NC)nc4)CC3)cc2NC1=O` (centres unmarked) [Compound A1], the IC50 was < 100 nM.

Turning to `CNC(=O)c1ccc(N2CCN(Cc3ccc4c(c3)NC(=O)C3(CC3)O4)CC2)c(F)n1` [Compound A7], the concentration for half-maximal inhibition (IC50) was < 100 nM.

For the compound `CNC(=O)c1ccc(N2CCN(Cc3ccc4c(c3F)NC(=O)C3(CC3)O4)CC2)c(F)n1` [Compound A9], the IC50 was < 100 nM.

The target in a further assay is T1, PARP1. The assay is described as follows: biochemical assay (FP Binding Assay PARP1), Table 2. As for the experimental part: FP Binding Assay (PARP1, PARP2)
The PARP1 and PARP 2 protein and the PARPi-FL were purchased from BPS Bioscience. The assay buffer was 50 mM Tris pH 8.0, 0.001% Triton X-100, 10 mM MgCl2, 150 mM NaCl. The compounds were diluted into top point concentration in 384PP-plate and transferred serially into an Optiplate-384F plate. Compound (20 nL) or DMSO was added to assay plate and then 10 μL of 40 nM PARP1 or PARP2 (diluted using assay buffer) was added. The assay plate was centrifuged at 1000 rpm for 1 min and then incubated for 30 min at rt. 6 nM PARPi-FL (diluted using assay buffer) (10 uL) was added to the plate (final concentration of PARP1 and PARP2 was 20 nM, and PARPi-FL was 3 nM). After centrifuging at 1000 rpm for 1 min, the assay plate was incubated at rt 4 h. The plates were read using Envision with Excitation filter. The data analysis was done by calculating the inhibition rate using mP value using the following equation. Inhibition (%)=(1−mpC−mpL)/mpH−mpL×100%.
As shown by the results in Table 2, compounds of Formula (I), including pharmaceutically acceptable salts thereof, are effective PARP1 inhibitors.
Target sequence in this assay (P09874 whole entry, species assumed): as the sequence (P09874 whole entry) above
Take `CNC(=O)c1ccc(N2CCN(Cc3ccc4c(c3)NC(=O)C3(CC3)O4)CC2)c(F)n1` [Compound A7]: the IC50 was < 5 nM.
